In patent US6933296B2, “Compounds effective as β2-adrenoreceptor agonists as well as PDE4-inhibitors” (Altana Pharma B.V., priority 2000, dated 2005):

Tests used:
β2-adrenoceptor = target: T1, β2-adrenoceptor (Cavia porcellus, UniProt Q8K4Z4); experiment: β2-Adrenoceptor agonistic activity in isolated guinea-pig trachea (relaxation); type: cell-based; conditions: half-maximal relaxation of isolated guinea-pig trachea pre-treated with 3×10^−7 M RP 73401
T1 construct: Male guinea-pigs (350-450 g) were killed by a sharp blow on the head and exsanguination, after that the trachea was removed; from tissue; host or cells: isolated guinea-pig trachea (ring chains in organ bath)
T1 sequence (Q8K4Z4 whole entry): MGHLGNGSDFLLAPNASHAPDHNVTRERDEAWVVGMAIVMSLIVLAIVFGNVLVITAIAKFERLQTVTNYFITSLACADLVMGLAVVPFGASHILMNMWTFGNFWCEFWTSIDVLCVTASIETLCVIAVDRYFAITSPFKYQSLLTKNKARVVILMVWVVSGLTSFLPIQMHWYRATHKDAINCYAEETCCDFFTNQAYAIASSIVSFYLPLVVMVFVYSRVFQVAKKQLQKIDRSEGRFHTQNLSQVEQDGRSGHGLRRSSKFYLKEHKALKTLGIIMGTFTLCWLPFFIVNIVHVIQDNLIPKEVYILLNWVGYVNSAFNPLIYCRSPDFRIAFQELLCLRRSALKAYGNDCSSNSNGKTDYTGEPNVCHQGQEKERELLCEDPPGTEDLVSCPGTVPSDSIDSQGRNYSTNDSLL
Source text: b) β2-Adrenoceptor Agonistic Activity in Isolated Guinea-pig Trachea
Male guinea-pigs (350-450 g) were killed by a sharp blow on the head and exsanguination, after that the trachea was removed. After clearing off adhering tissue the trachea was cut into single rings which were tied together forming up to six 4- to 5-ring chains which were suspended in 10-ml organ baths containing Krebs buffer of the following composition (mM): NaCl 118, KCl 5.2, CaCl2 1.9, MgSO4 0.56, NaH2PO4 0.8, NaHCO3 25.0, and glucose 11.1, maintained at 37° C. and continuously aerated with a mixture of 95% O2 and 5% CO2. The end of the chain was tied at the bottom of the tissue bath and connected to a force-displacement transducer (Type K-30, Hugo Sachs Elektronik, Germany) for the recording of isometric tension changes and then placed under 1.5 to 2 g of tension. After a 60 min equilibration period, during which time the preparations were repeatedly washed and the spontaneous contraction plateaud, each tracheal preparation was pre-treated with 3×10^−7 M of RP 73401 for total inhibition of PDE4, which caused relaxation of the tissue between 30 and 40% of maximum (Harris et al., 1989, JPET 251: 199-206). After stabilization of the relaxant response to RP 73401, the test drugs were administered in a cumulative manner (factor 3), each concentration remaining in contact with the trachea until the […] response reached a plateau, before addition of the next higher concentration. At the end of the test drug administration, which caused maximal relaxation the tissue (verified in control experiments for each test drug by additional administration of 10^−6 M (−)-isoprenaline), a high concentration of the β-adrenoceptor antagonist, dl-sotalol (3−6×10^−4 M), was additionally given to assess whether the relaxant response of the trachea to test compound was due to β2-adrenoceptor stimulation. dl-Sotalol nearly completely reversed the relaxation amplitude to the test compounds and was taken as evidence for their β2-adrenoceptor agonistic property. The relaxant response to test compound was expressed as percent determined between the relaxant amplitude after that reached by RP 73401 (0%) and the maximal relaxation obtained prior to dl-sotalol administration (100%). EC50 values for a half-maximal relaxation of the tissue by test compound were graphically interpolated from 12 to 16 individual concentration-response curve. The −log EC50 values (mol/l) thus obtained were taken as a measure for β2-adrenoceptor agonistic activity of the test compounds.

human eosinophils = experiment: Inhibition of C5a-stimulated chemiluminescence in human eosinophils; type: cell-based; conditions: 100 nM C5a, 100 nM salbutamol included as additional cAMP trigger
Source text: c) Inhibition of C5a-stimulated Chemiluminescence in Human Eosinophils
Eosinophils were purified essentially as described in detail elsewhere (Hatzelmann A, Tenor H and Schudt C, Differential effects of non-selective and selective phosphodiesterase inhibitors on human eosinophil functions. Brit J Pharmacol 114: 821-831, 1995). Briefly, total granulocytes were first purified from blood (anticoagulated with 0.3% w/v sodium citrate) by dextran sedimentation, centrifugation on Ficoll Paque and hypotonic lysis of remaining red blood cells. For the further purification of the eosinophil fraction the magnetic cell separation (MACS) system from Miltenyi Biotec (Bergisch-Gladbach, Germany) was applied. Eosinophils were separated from neutrophils by negative selection using anti-CD16 microbeads in a two-step protocol using D- and BS-(formerly called B2-) separation columns. By this method human eosinophils with a purity of >99% and a viability of >97% were obtained.
The chemiluminescence (CL) assay was essentially performed as described (Hatzelmann et al., 1995). Briefly, measurements were performed in a “CL-buffer” (140 mM NaCl, 5 mM KCl, 1 mM MgCl2, 10 mM HEPES, pH 7.4) containing 1 mM CaCl2, 1 mg/ml glucose, 0.05% (w/v) BSA, 10 μM luminol and 4 μM microperoxidase (all values correspond to final concentrations in the assays) in a total volume of 0.5 ml at a cell concentration of 10^6 cells/ml. Aliquots (0.4 ml) of the cell suspension (containing luminol and microperoxidase) were preincubated for 5 min at 37° C. in the absence or presence of inhibitors (0.05 ml). Stock solutions of the inhibitors (10 mM) were prepared in DMSO and diluted 1:100 (v/v) in CL-buffer; subsequent dilutions were made in 1% DMSO/CL-buffer to achieve the final drug concentrations in the assays at a DMSO concentration of 0.1% (v/v) which by itself only weakly affected the CL response. […] After preincubation, the assays were transferred into a “Multi-biolumat LB 9505C” from Berthold (Wildbad, Germany) and stimulated by the addition of 0.05 ml C5a (dissolved in CL-buffer; 100 nM final concentration). CL was continuously recorded for 1 min (C5a) and the AUC (area under the curve) calculated. Inhibition of CL by the compounds under these conditions is given as −log IC30 (mol/l).

| Substance | β2-Adrenoceptor agonistic affinity [-logEC50 (mol/l)] (β2-adrenoceptor) | Inhibition of C5a-stimulated chemiluminescence [-logIC30 (mol/l)] (human eosinophils) [mol/l] |
| --- | --- | --- |
| (cis)-2-(5-[{2-(4-amino-3-chloro-5-cyanophenyl)-2-hydroxyethyl}amino]-1-pentyl)-4-(3,4-dimethoxyphenyl)-4a,5,8,8a-tetrahydro-2H-phthalazin-1-one hemifumarate [Compound 12] | 8.61 -log(mol/l) | 5.92 |
| (cis)-2-(6-[{2-(4-amino-3,5-dichlorophenyl)-2-hydroxyethyl}-amino]-1-hexyl)-4-(3,4-dimethoxyphenyl)-4a,5,6,7,8,8a-hexahydro-2H-phthalazin-1-one hemifumarate [Compound 2] | 6.86 -log(mol/l) | <5 |
| (cis)-2-(6-[{2-(4-amino-3,5-dichlorophenyl)-2-hydroxyethyl}-amino]-1-hexyl)-4-(3,4-dimethoxyphenyl)-4a,5,8,8a-tetrahydro-2H-phthalazin-1-one hemifumarate [Compound 6] | 7.60 -log(mol/l) | 6.00 |
| (cis)-2-(6-[{2-(4-amino-3-chloro-5-cyanophenyl)-2-hydroxyethyl}amino]-1-hexyl)-4-(3,4-dimethoxyphenyl)-4a,5,8,8a-tetrahydro-2H-phthalazin-1-one hemifumarate [Compound 13] | 6.91 -log(mol/l) | 6.52 |
| (cis)-2-(8-[{2-(4-amino-3,5-dichlorophenyl)-2-hydroxyethyl}-amino]-1-octyl)-4-(3,4-dimethoxyphenyl)-4a,5,6,7,8,8a-hexahydro-2H-phthalazin-1-one hemifumarate [Compound 3] | 6.77 -log(mol/l) | 6.52 |
| (cis)-4-(3,4-dimethoxyphenyl)-2-(6-[{2-(4-hydroxy-3-hydroxymethylphenyl)-2-hydroxyethyl}amino]-1-hexyl)-4a,5,6,7,8,8a-hexahydro-2H-phthalazin-1-one hemifumarate [Compound 14] | 7.24 -log(mol/l) | 5.30 |
